# Measured values from patent US9247759B2, “Identification of human T2R receptors that respond to bitter compounds that elicit the bitter taste in compositions, and the use thereof in assays to identify compounds that inhibit (block) bitter taste in compositions and use thereof” (SENOMYX, INC., priority 2007, dated 2016).
# Where two headings read alike, the source gives them in different places.
# Tests used:
# hT2R8 = hT2R8 (Homo sapiens (Human), UniProt Q9NYW2); test: hT2R8 antagonist high-throughput FLIPR assay, stable cell line with G16g44, agonist andrographolide; type: cell-based
# Sequence of hT2R8 (Q9NYW2 whole entry): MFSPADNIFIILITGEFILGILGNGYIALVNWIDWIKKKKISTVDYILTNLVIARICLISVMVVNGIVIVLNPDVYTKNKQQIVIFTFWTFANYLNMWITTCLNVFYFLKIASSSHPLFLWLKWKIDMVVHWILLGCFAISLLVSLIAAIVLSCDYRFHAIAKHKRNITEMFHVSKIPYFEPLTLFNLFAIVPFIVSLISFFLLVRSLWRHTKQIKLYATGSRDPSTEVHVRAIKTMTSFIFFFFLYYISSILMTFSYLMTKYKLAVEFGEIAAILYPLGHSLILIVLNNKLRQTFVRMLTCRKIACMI
# Summary of the method: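 HEK293 cells stably co-expressing hT2R8 and chimeric G16g44, read on FLIPR. Test compounds added together with andrographolide (200 μM), which drives the receptor to 70–80% of maximal activity; antagonism seen as reduced agonist response.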
# [1] = read-out: IC50 on hT2R8 bitter receptor
# [2] = table after Example 10-97, read-out: hT2R8 IC50
Compound,melting point,IC50 (hT2R8; [1]),IC50 (hT2R8; [2])
"Cc1noc(C)c1Cn1cc(NC(=O)c2scc(S(C)(=O)=O)c2Cl)cn1 [Example 4-2, 3-chloro-N-(1-((3,5-dimethylisoxazol-4-yl)methyl)-1H-pyrazol-4-yl)-4-(methylsulfonyl)thiophene-2-carboxamide]",202 to 204 °C,2090 nM,
"Cc1noc(C)c1Cn1cc(NC(=O)Cc2ccccc2)cn1 [Example 4-6, N-(1-((3,5-dimethylisoxazol-4-yl)methyl)-1H-pyrazol-4-yl)-2-phenylacetamide]",106 to 108 °C,530 nM,
"Cc1noc(C)c1Cn1cc(NC(=O)[C@@H](C)c2ccccc2)cn1 [Example 4-3, (S)—N-(1-((3,5-dimethylisoxazol-4-yl)methyl)-1H-pyrazol-4-yl)-2-phenylpropanamide]",108 to 110 °C,410 nM,
"Cc1noc(C)c1Cn1cc(N2C(=O)c3ccccc3C2=O)cn1 [Example 9-1, 2-(1-((3,5-dimethylisoxazol-4-yl)methyl)-1H-pyrazol-4-yl)isoindoline-1,3-dione]",170 to 171 °C,180 nM,
"Cc1noc(C)c1Cn1cc(NC(=O)C(C)c2ccccc2)cn1 (stereo not drawn) [Example 4-5, N-(1-((3,5-dimethylisoxazol-4-yl)methyl)-1H-pyrazol-4-yl)-2-phenylpropanamide]",129 to 130 °C,320 nM,
"Cc1noc(C)c1Cn1cc(NC(=O)C23CC4CC(CC(C4)C2)C3)cn1 [Example 4-16, N-(1-((3,5-dimethylisoxazol-4-yl)methyl)-1H-pyrazol-4-yl) adamantane]",167 to 169 °C,880 nM,
"COc1cc(CC(=O)Nc2cnn(Cc3c(C)noc3C)c2)cc(OC)c1O [Example 4-4, N-(1-((3,5-dimethylisoxazol-4-yl)methyl)-1H-pyrazol-4-yl)-2-(4-hydroxy-3,5-dimethoxyphenyl)acetamide]",187 to 188 °C,460 nM,
"Cc1noc(C)c1Cn1cc(N2C(=O)NC(Cc3ccccc3)C2=O)cn1 (stereo not drawn) [Example 10-2, 5-benzyl-3-(1-((3,5-dimethylisoxazol-4-yl)methyl)-1H-pyrazol-4-yl)imidazolidine-2,4-dione]",169 to 171 °C,180 nM,

# The next compounds have a lower IC50 (hT2R8; [1]) than those just listed; values first:
melting point,IC50 (hT2R8; [1]),IC50 (hT2R8; [2]),Compound
107 to 108 °C,80 nM,,"COc1cccc(CN2C(=O)N(c3cnn(Cc4c(C)noc4C)c3)C(=O)C2(C)C)c1 [Example 12-32, 3-(1-((3,5-dimethylisoxazol-4-yl)methyl)-1H-pyrazol-4-yl)-1-(3-methoxybenzyl)-5,5-dimethylimidazolidine-2,4-dione]"
117 to 118 °C,60 nM,63 nM,"Cc1noc(C)c1Cn1cc(N2C(=O)CN(CCOc3ccccc3)C2=O)cn1 [Example 10-5, 3-(1-((3,5-dimethylisoxazol-4-yl)methyl)-1H-pyrazol-4-yl)-1-(2-phenoxyethyl)imidazolidine-2,4-dione]"
97 to 98 °C,140 nM,97 nM,"COc1ccccc1CCN1CC(=O)N(c2cnn(Cc3c(C)noc3C)c2)C1=O [Example 10-76, 3-(1-((3,5-dimethylisoxazol-4-yl)methyl)-1H-pyrazol-4-yl)-1-(2-methoxyphenethyl)imidazolidine-2,4-dione]"
110 to 111 °C,60 nM,64 nM,"Cc1noc(C)c1Cn1cc(N2C(=O)CN(CCc3cccc(F)c3)C2=O)cn1 [Example 10-77, 3-(1-((3,5-dimethylisoxazol-4-yl)methyl)-1H-pyrazol-4-yl)-1-(3-fluorophenethyl)imidazolidine-2,4-dione]"
